# Assay results from patent US20220202783A1, “Use Of ADAM9 Inhibitor As Immunomodulator” (China Medical University, priority 2019, published 2022).
# Assays:
# [1] = cytotoxicity assay in HNOF cells; format: cell-based; parameters: key to effect of inhibiting tumor cell growth: “+” represents that the compound has the effect of inhibiting tumor cell growth; settings: human, HNOF cells
# [2] = tested on: HNOF; test: cytotoxicity assay in HNOF cells; format: cell-based; parameters: key to effect of inhibiting tumor cell growth: “+” represents that the compound has the effect of inhibiting tumor cell growth; settings: HNOF
# [3] = tested on: lung cancer cells (Bm7brmx2); test: cytotoxicity assay in Bm7brmx2 cells; format: cell-based; parameters: key to effect of inhibiting tumor cell growth: “+” represents that the compound has the effect of inhibiting tumor cell growth
# Experimental: (§1) Please refer to FIG. 1A, FIG. 1B and Table 2, which show the analysis results of the compound of Formula (I) inhibiting ADAM9 activity. In FIG. 1A, Bm7 lung cancer cells were treated with the derivatives of the compound 6X-0310, and then cultured under anchorage-free culture condition. The expressions of ADAM9 and CDCP1 in Bm7 lung cancer cells were detected by Western blot, in which EF1α is an internal control, and mock represents Bm7 lung cancer cells without treatment. […] In the experiment, the compounds of Formula (I) of Example 1 to Example 32 were further performed cytotoxicity assay to measure the IC50 value of the compounds of Formula (I) of the present disclosure in lung cancer cell lines.
# [4] = tested on: breast cancer cells (231-brm); test: cytotoxicity assay in 231-brm cells; format: cell-based; parameters: key to effect of inhibiting tumor cell growth: “+” represents that the compound has the effect of inhibiting tumor cell growth
# [5] = tested on: CDCP1 in Bm7 lung cancer cells; test: Western blot of ADAM9 and CDCP1 expression in Bm7 cells; format: cell-based; settings: anchorage-free culture
# Experimental: as §1
# [6] = target: ADAM17 (Homo sapiens, UniProt P78536); test: inhibition of ADAM17 activity; format: biochemical; settings: different concentrations
# [7] = tested on: TC1-WT lung cancer cells; test: colony-forming assay, TC1; format: cell-based; settings: 10 μM
# Experimental: To further test the planting efficiency of tumor cells treated with the compound SW1 and the compound SW2, in the experiment, control Bm7 lung cancer cells (treated with shGFP) and ADAM9 KO Bm7 lung cancer cells (treated with shADAM9) were treated with 20 μM of the compound SW1 or the compound SW2 respectively, and TC1-wild-type (WT) lung cancer cells and TC1-ADAM9 KO lung cancer cells were treated with 10 μM of the compound SW1 or the compound SW2 respectively. Then colony-forming assay was used to confirm the planting efficiency of each test group. Please refer to FIGS. 2D and 2E, wherein mock represents the tumor cell lines without treatment of the compound SW1 or the compound SW2. Representative images of colony-forming assay are shown at the bottom, and data are means±SD of 6 separate wells.
# [8] = tested on: PC-080; test: cytotoxicity on pancreatic cancer cells, PC-080; format: cell-based; settings: Pancreatic cancer cell
# Experimental: (§2) In addition, the IC50 values (unit is μM) of the compound SW1 and the compound SW2 on pancreatic cancer cells were measured in the experiment.
# [9] = tested on: HPAC-GFP-Luc; test: cytotoxicity on pancreatic cancer cells, HPAC-GFP-Luc; format: cell-based; settings: Pancreatic cancer cell
# Experimental: as §2
# [10] = tested on: TC1-WT lung cancer cells; test: subcutaneous lung tumor mouse model; format: in vivo, C57BL/6 mice; settings: 10 mg/kg subcutaneous injection once a day, Day 15 to Day 24, vs DMSO control
# Experimental: In order to further evaluate whether the treatment of ADAM9 inhibitors will give the same results as the ADAM9 gene knockout, TC1-WT lung cancer cells were injected subcutaneously into C57BL/6 mice with normal immunity to establish a subcutaneous lung tumor mouse model, and the ADAM9 inhibitor (the compound SW1, 10 mg/kg) was treated by subcutaneous injection. From Day 15 to Day 24, the compound SW1 was injected once a day for […]. The tumor volume was observed on Day 12, Day 20 and Day 27, respectively. […] The control group was injected with DMSO as a control for the treatment of the ADAM9 inhibitor.
# [11] = tested on: 4T1-luc breast cancer cells; test: syngeneic orthotopic breast tumor animal model, immune cell infiltration; format: in vivo, BALB/c mice; settings: 10 mg/kg subcutaneous
# Text: Please further refer to FIG. 7B, which is a flow chart of the ADAM9 inhibitor used in the treatment of a syngeneic orthotopic breast tumor animal model. In the experiment, 4T1-luc breast cancer cells (5×10^4) were transplanted into the breast fat pads of BALB/c mice to establish the syngeneic orthotopic breast tumor animal model. The IVIS imaging system is used for detection, and the tumor size is represented by the luminous flux of the IVIS image. After tumor images were detected on Day 15, the ADAM9 inhibitor (the compound SW1, 10 mg/kg) was pretreated by subcutaneous injection on Day 16, Day 18, and Day 20. After the tumor was surgically removed on Day 21, the ADAM9 inhibitor (the compound SW1, 10 mg/kg) was continuously treated on Day 23, Day 25, Day 27, Day 29 and Day 31. The surgically resected syngeneic orthotopic breast tumor animal model tumors were stained by immunohistochemistry. In the experiment, a control group was injected with DMSO as a control for the treatment of the ADAM9 inhibitor. Please further refer to FIGS. 8A and 8B, which show the analysis results of the effect of the ADAM9 inhibitor on immune cell infiltration.
# [12] = tested on: TC1 subcutaneous lung tumor; test: co-treatment of ADAM9 inhibitor and checkpoint inhibitor, CD8+ T cells to TReg ratio in tumors; format: in vivo, mice; settings: co-treated with anti-PDL1 antibody; vs vehicle, SW1 alone or anti-PDL1 antibody alone
# Experimental: To further analyze whether the ADAM9 inhibitor and the checkpoint inhibitor have a synergistic effect, in the experiment, TC1 subcutaneous lung tumor mice were treated alone with the ADAM9 inhibitor (the compound SW1), the checkpoint inhibitor (anti-PDL1 antibody) or co-treated with the ADAM9 inhibitor (the compound SW1) and the checkpoint inhibitor (anti-PDL1 antibody), and the ratio of CD8^+ T cells and regulatory T cells (TReg) in tumors of TC1 subcutaneous lung tumor mice was analyzed. The experiment also included a control group treated with vehicle (DMSO).
# [13] = tested on: human colon cancer cells SW620; test: cytokine RNA expression by RT-qPCR, SW620; format: cell-based; settings: 12.5 μM, 24 hours
# Experimental: We further analyzed whether the treatment of the ADAM9 inhibitor can stimulate tumor cells to secrete cytokines to activate the anti-tumor immunity of the ADAM9 inhibitor. In the experiment, human colon cancer cells SW620 and human pancreatic cancer cells PANC-1 were treated with 12.5 μM of the compound SW1, and human esophageal cancer cells C[…] were treated with 5 μM of the compound SW1. After 24 hours, the cells were collected and the RNA expression levels of CXCL10, CXCL11, CXC3CL1 and IFNB were detected by RT-qPCR. CXCL10, CXCL11 and […] are cytokines that promote the immune response of CD8^+ T cells, and IFNB is a cytokine with anti-cancer effects. Please refer to FIGS. 10A, 10B and 10C, which show the analysis results of the ADAM9 inhibitor stimulated tumor cells to secrete cytokines.
# ADAM17, sequence (P78536 215-824, species assumed): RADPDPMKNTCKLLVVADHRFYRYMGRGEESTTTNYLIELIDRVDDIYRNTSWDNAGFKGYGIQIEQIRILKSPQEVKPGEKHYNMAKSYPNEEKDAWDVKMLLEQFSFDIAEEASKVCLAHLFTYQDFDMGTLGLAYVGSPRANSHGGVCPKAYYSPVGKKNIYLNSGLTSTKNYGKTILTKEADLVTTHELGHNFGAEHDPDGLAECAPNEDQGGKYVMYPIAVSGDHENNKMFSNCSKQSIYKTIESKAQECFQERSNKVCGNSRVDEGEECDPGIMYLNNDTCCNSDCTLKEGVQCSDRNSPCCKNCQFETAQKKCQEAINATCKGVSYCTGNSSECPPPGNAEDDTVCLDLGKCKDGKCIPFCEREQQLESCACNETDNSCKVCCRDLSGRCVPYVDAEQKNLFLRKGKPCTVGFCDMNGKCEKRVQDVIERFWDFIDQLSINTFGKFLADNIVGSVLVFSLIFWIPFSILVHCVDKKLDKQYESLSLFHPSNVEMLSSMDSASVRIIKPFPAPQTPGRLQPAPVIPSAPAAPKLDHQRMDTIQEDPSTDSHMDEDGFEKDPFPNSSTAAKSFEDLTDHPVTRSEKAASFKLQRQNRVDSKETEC
inhibition of ADAM17 activity [6],SMILES,IC50 [1] [µM],effect of inhibiting tumor cell growth [2],IC50 [3] [µM],effect of inhibiting tumor cell growth [3],IC50 [4] [µM],effect of inhibiting tumor cell growth [4],expression of CDCP1 [5],"planting efficiency, colony-forming assay [7]",IC50 [8] [µM],IC50 [9] [µM],tumor growth (tumor volume) [10],number of infiltrating neutrophils ([11]; 4T1 primary breast tumors and lung metastatic breast tumors),number of infiltrating T cells ([11]; primary 4T1 breast tumors and lung metastatic breast tumors),ratio of CD8+ T cells to regulatory T cells (TReg) in tumors [12],"RNA expression levels of CXCL10, CXCL11, CXC3CL1 and IFNB [13]"
no inhibitory effects,O=C(Nc1nc(CCN2C(=O)c3ccccc3C2=O)cs1)c1cc2ccccc2s1 [SW2],61.9,+,52.7,+,7.55,+,reduce the expression of CDCP1,greatly reduce the planting efficiency,89.6,29.3,–,–,–,–,–
no inhibitory effects,O=C1c2ccccc2C(=O)N1CCc1csc(Nc2nc(CCN3C(=O)c4ccccc4C3=O)cs2)n1 [SW1],97.8,+,71.6,+,4.5,+,reduce the expression of CDCP1,greatly reduce the planting efficiency,446,126,reduces tumor growth,greatly reduced,increased,increased significantly,"increase the expressions of CXCL10, CXCL11, CXC3CL1 and IFNB"
